BindingDB's records for doi:10.1021/jm0492397 (Saarland University, 2005)

Biological target: T1, Cytochrome P450 11B1, mitochondrial (Homo sapiens, UniProt P15538)
T1 sequence (P15538 whole entry): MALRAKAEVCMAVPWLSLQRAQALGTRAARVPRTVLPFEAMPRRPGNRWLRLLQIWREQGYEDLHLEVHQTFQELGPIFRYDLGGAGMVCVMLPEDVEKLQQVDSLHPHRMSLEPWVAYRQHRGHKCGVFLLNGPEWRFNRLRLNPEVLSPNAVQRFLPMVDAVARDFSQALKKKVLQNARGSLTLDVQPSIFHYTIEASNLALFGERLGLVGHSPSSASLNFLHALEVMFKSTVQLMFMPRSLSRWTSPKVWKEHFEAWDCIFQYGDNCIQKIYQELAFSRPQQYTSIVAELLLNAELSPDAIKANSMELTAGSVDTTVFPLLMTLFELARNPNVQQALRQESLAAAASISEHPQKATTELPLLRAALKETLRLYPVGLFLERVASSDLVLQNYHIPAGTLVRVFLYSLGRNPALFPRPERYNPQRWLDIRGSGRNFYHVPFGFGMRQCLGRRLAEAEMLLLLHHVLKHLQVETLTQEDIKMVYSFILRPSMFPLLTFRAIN
Assay: CYP11B assay
Method: The enzyme activity was assayed by monitoring the conversion of deoxycorticosterone to corticosterone in the presence of inhibitor compounds. The product formation was monitored by HPTLC using a phosphoimager system.

Row | SMILES | IC50
1 | C/C(=C1/CCc2cc(F)ccc21)c1cccnc1 [3-{1-[(1E)-5-fluoro-2,3-dihydro-1H-inden-1-ylidene]ethyl}pyridine] | 159 nM
2 | C(=C1/CCCc2ccccc21)/c1ccncc1 [4-[(E)-3,4-Dihydronaphthalen-1(2H)-ylidenemethyl]pyridine] | 282 nM
3 | Brc1ccc2c(c1)CC/C2=C/c1ccncc1 [4-{[(1Z)-5-bromo-2,3-dihydro-1H-inden-1-ylidene]methyl}pyridine] | 877 nM
4 | Clc1ccc2c(c1)CC/C2=C/c1ccncc1 [4-{[(1Z)-5-chloro-2,3-dihydro-1H-inden-1-ylidene]methyl}pyridine] | 1120 nM
